# Data published in paper PMC11701132, “Tau is a receptor with low affinity for glucocorticoids and is required for glucocorticoid-induced bone loss” (Cell Research, 2025).
# Legend:
# [1] = target: T1, Tau (Homo sapiens, UniProt P10636); assay: one-step kinetic SPR (KD […]); solid phase binding with biotin-dexamethasone ([…]); DARTS in Raw264.[…] lysate ([…])
# T1 construct: gene MAPT; purified Tau protein
# [2] = target: T2, GPR97 (Homo sapiens, UniProt Q86Y34); assay: HuProt human proteome microarray with biotin-labeled dexamethasone ([…]); type: binding
# T2 construct: gene ADGRG3; full-length human protein with N-terminal glutathione S-transferase tag on microarray
# T2 sequence (Q86Y34 21-549): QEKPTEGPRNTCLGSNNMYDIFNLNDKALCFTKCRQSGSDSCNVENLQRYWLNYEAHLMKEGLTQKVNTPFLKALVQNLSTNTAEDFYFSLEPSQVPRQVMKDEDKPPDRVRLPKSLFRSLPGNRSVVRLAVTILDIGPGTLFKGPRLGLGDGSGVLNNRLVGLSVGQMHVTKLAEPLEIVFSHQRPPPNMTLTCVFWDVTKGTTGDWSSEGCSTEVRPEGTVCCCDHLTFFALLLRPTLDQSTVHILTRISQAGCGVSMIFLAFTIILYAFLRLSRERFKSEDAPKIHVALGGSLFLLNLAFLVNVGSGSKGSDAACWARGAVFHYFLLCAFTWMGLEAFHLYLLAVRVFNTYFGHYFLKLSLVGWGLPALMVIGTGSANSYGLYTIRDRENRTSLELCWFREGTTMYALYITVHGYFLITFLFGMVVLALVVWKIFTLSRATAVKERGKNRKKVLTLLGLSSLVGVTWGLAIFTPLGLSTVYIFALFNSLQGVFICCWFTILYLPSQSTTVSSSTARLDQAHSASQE
# T1 sequence (P10636 1-441 isoform P10636-8): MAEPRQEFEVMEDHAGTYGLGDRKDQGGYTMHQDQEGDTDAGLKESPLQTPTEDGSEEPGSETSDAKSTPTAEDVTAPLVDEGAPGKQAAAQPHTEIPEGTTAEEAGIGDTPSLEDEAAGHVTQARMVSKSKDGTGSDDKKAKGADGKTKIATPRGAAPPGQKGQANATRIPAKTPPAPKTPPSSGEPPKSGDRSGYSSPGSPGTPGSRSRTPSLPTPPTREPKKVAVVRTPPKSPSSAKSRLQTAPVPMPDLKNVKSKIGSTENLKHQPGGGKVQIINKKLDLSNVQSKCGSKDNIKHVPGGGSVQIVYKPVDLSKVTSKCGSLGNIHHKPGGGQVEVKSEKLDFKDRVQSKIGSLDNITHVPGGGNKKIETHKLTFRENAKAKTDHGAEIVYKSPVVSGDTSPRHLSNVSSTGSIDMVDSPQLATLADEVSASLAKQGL
smiles,measurement,setting,value
C[C@@H]1C[C@H]2[C@@H]3CCC4=CC(=O)C=C[C@]4(C)[C@@]3(F)[C@@H](O)C[C@]2(C)[C@@]1(O)C(=O)CO [dexamethasone],Kd,[1],~380 µM
same,HuProt human proteome microarray with biotin-labeled dexamethasone (0.2 and 400),[2],"dexamethasone bound to GR and GPR97, two known receptors of dexamethasone"
